Results as given in patent US20210023223A1, “HYDROCARBON / LIPID - CAROTENOID COMPLEXES” (IP SCIENCE LIMITED, priority 2018, published 2021).

How the values were obtained:
[1] = Hydrophobicity as oxygen gas solubility (micellar red-ox catalymetry); type: physicochemical
Source text: It is known that gas molecules are more soluble in hydrophobic domains than in polar structures or liquids. For example, solubility of molecular oxygen could be 4 to 10 fold greater in intact lipid membrane than in a surrounding aqueous solution [1-5]. In other words one can use the measure of soluble gas in lipids, or other […], as a measure of its hydrophobicity. This approach seem logical, however to the best of our knowledge has never been published.
Here we describe a new method to measure hydrophobicity of lipids as a function of concentration of soluble molecular oxygen within their matrix.
There are a number of ways to measure molecular oxygen in solid, crystal and indeed lipid structures. Almost all of them are physical methods such as ESR [1] or polarography. However, we decided to use much simpler and faster micellar acceleration red-ox catalymetry. This test can measure O2 in a dozen parallel samples not only lipids in model systems but also in circulating lipoproteins from human blood.
The physical expansion of the size of the oil droplets observed in the above experiments was estimated by independent measurements on changes in their hydrophobicity. […] With this approach it was possible to detect these changes when ratio lycopene to fatty acids reached 1 to 10,000 and then it was a dose dependent effect. This rise reached its plateau level at the ratio 1:4,000.

Melting time = type: physicochemical; conditions: lycopene 0.25 to 0.5 mg per 1 gram
Method: Approximately 20 mg of butter, or pork fat, or beef fat, or cocoa butter, or chocolate, with or without certain concentrations of carotenoids, were placed on the surface of the laboratory slides and incubated at 37° C. in a laboratory incubator (TLK39).
For example, in experiments with the chocolate spread, when the lycopene was 0.25 to 0.5 mg per 1 gram of this product its melting time reduced by 30-35%, FIG. 18.

[2] = Acid induced degradation at pH 2.5, gas chromatography; type: physicochemical; conditions: lycopene 1 mg or 3 mg per 1 gram of DHA; 37° C.
[3] = Oil volume needed to cover water surface; type: physicochemical; conditions: vs unmodified olive oil
Source text: The other way to assess changes in oil viscosity, caused by carotenoids, would be to measure how much oil would be needed to cover a water surface of the same size. The lower viscosity of the oil the more spreadable it will be, and consequently less of it would be needed to cover this surface. Therefore, by measuring how much oil would be required to cover a certain surface of water we can asses how deep changes in the lipid folding were made by incorporating carotenoids.
An additional nine heating experiments were carried out when either pure Napolina olive oil, Napolina olive oil containing Astaxanthin (7 mg/ml), or Napolina olive oil containing Lycopene (7 mg/ml) was carefully poured over the surface of the water in order to prevent evaporation. The amount of oil required to completely cover the surface of the 100 ml water sample in the cup (diameter—7.4 cm) was measured (15 ml Falcon laboratory tubes and 1 ml Pipetman pitettes were used) and recorded for each oil type. The thickness of the resulting oil film (necessary to completely cover water surface) was then calculated. Temperature change curves were compared for uncovered water and water samples overlayed with three varieties of oil at heating temperatures of 200° C., 250° C. and 300° C. Water samples overlaid with oils were heated until water reached boiling point (usually at 99° C.). […]

[4] = system: individuals with a moderate hyperlipidemia; experiment: Clinical Trial DHA-Lycopene, 4 weeks; type: in vivo, human; conditions: medians, DHA 250 mg and/or lycopene 7 mg once a day
Method: To validate this, a clinical trial was undertaken. 32 individuals aged 40-65 years old with a moderate hyperlipidemia (serum triglycerides, TG, >150 mg/dl and LDL from 130 to 160 mg/dl). They were randomised and split in four groups of 8: • The first was supplemented with a 250 mg of conventional formulation of DHA without lycopene (CF-DHA), • the second with 7 mg of lycopene, • the third with 250 mg of DHA and 7 mg of lycopene co-ingested at the same time but as two separate products, and • the fourth group received 7 mg lycopene formulated with 250 mg of DHA (LF-DHA). All products were taken once a day with the main meal. The duration of the trial was for 4 weeks.

[5] = system: B10.MLM cells (alveolar macrophages); experiment: Transmission electron microscopy of cells; type: cell-based; conditions: 48 hours
Method: B10.MLM cells were cultured with or without lycopene for 48 hours and then harvested from the plates with trypsin-versene solution. Cell pellets obtained by centrifugation for 10 min at 1500 r.p.m. (Rotanta 460R; Hettich) were fixed with Ito-Karnovsky fixative solution, followed by post-fixation with OsO4 and treatment with aqueous uranyl acetate to provide contrast. The specimens were subsequently dehydrated in an ascending series of alcohol concentrations (50, 70, 96 and 100% ethanol), infiltrated with a 1:1 (v/v) mixture of LR White resin and 100% ethanol for 1 h and in a pure resin for 12 h at 4° C. Resin polymerization was performed at 56° C. for 24 h. Ultrathin sections were prepared, treated with a lead solution to provide contrast (Reynolds, 1963) and analysed using a JEOL 100B transmission electron microscope with an accelerating voltage of 80 kV (Jeol, Japan).

[6] = Size of Canola oil lipid droplets, microscopy; type: physicochemical
Source text: For measurement of lipid droplets and fat globules and quantification of their size binocular microscope Olympus BX41 was used with Cell^B software for morphometric analysis. All parameters were collected from 10 randomly selected microscopic fields at ×1000).
The effect of adding lycopene into another polyunsaturated oil, in this case cod liver oil, was a dose-dependent increase in the size of its lipid structures. For Olive and Sunflower oils this increase in diameter caused by lycopene could reach 20 fold, for Canola and Cod Liver oil it was 50 or 100 fold.

Reduction of melting time of chocolate spread (Melting time): 30-35%
Degradation of DHA at pH2.5 [2]: completely prevented
Reduction of oil required to cover the same water area [3]: ~60%
Increase in lipid droplet diameter [6]: 50 fold
Structure (SMILES): CC(C)=CCC/C(C)=C/C=C/C(C)=C/C=C/C(C)=C/C=C/C=C(C)/C=C/C=C(C)/C=C/C=C(\C)CCC=C(C)C [Lycopene]
Hydrophobicity in terms of gas solubility ([1]; ratio of molecules of lycopene per molecules of fatty acids 1:3,000): 248-287 10^−6 M O2 per mg of sunflower oil
Hydrophobicity in terms of gas solubility ([1]; ratio of molecules of lycopene per molecules of fatty acids 1:4,000): 275-321 10^−6 M O2 per mg of sunflower oil
Hydrophobicity in terms of gas solubility ([1]; ratio of molecules of lycopene per molecules of fatty acids 1:5,000): 197-198 10^−6 M O2 per mg of sunflower oil
Hydrophobicity in terms of gas solubility ([1]; ratio of molecules of lycopene per molecules of fatty acids 1:10,000): 180-182 10^−6 M O2 per mg of sunflower oil
Hydrophobicity in terms of gas solubility ([1]; ratio of molecules of lycopene per molecules of fatty acids 1:20,000): 143-155 10^−6 M O2 per mg of sunflower oil
LDL ([4]; 0 w): 156.0 mg/dL
Triglycerides ([4]; 0 w): 203.5 mg/dL
LDL ([4]; 4 w): 155.5 mg/dL
Triglycerides ([4]; 4 w): 190.0 mg/dL
Mitochondrial structures [5]: significantly increased both in size and their numbers
